Measured values reported in ChEMBL document CHEMBL1681741, “SAR studies on dihydropyrimidinone antibiotics” (Bioorg Med Chem Lett, 2011).
≈ marks a conversion by molar mass, not a printed value.

What was measured:
[1] = Inhibition of protein translation in rabbit reticulocytes; type: functional, cell-based, Oryctolagus cuniculus
[2] = Selectivity index, ratio of IC50 for protein translation inhibition in Escherichia coli S30 cell extract to IC50 for protein translation inhibition in rabbit reticulocytes; type: functional
[3] = system: Escherichia coli; test: Inhibition of protein translation in Escherichia coli S30 cell extract; type: functional
[4] = system: Staphylococcus aureus; test: Antimicrobial activity against methicillin-resistant Staphylococcus aureus by NCCLS method; type: functional
[5] = system: Staphylococcus aureus; test: Antimicrobial activity against methicillin-resistant Staphylococcus aureus in iv dosed mouse septicemia model; type: functional; details: read-out: PD50
[6] = system: Staphylococcus aureus; test: Antimicrobial activity against methicillin-resistant Staphylococcus aureus in mouse septicemia model; type: functional

Structure (SMILES)	IC50 [1] [µM]	Selectivity ratio [2]	IC50 [3] [µM]	MIC [4] [µg/mL]	ED50 [5] [mg/kg]	MIC [6] [µg/mL]
CN(C(=O)C[C@@H](N)CCCN1CCNC1=N)C1CNC(NC(N)=O)=NC1=O (mixture of isomers)	35	8.3	4.2	128	–	–
CN(C(=O)C[C@@H](N)CCCNC(=N)N)c1ccc(NC(N)=O)[nH]c1=O (mixture of isomers)	56	–	> 500	> 500	–	–
C/N=C(/NC)NCCC[C@H](N)CC(=O)N(C)C1CNC(NC(N)=O)=NC1=O (mixture of isomers)	26.3	20	1.3	256	–	–
CN(C(=O)C[C@@H](N)CCCCCN)C1CNC(NC(N)=O)=NC1=O (mixture of isomers)	10	2	5	16	–	–
CN[C@H](CC(C)C)C(=O)N[C@H]1C(=O)N[C@@H](CC(N)=O)C(=O)N[C@H]2C(=O)N[C@H]3C(=O)N[C@H](C(=O)N[C@H](C(=O)O)c4cc(O)cc(O)c4-c4cc3ccc4O)[C@H](O)c3ccc(c(Cl)c3)Oc3cc2cc(c3O[C@@H]2O[C@H](CO)[C@@H](O)[C@H](O)[C@H]2O[C@H]2C[C@](C)(N)[C@H](O)[C@H](C)O2)Oc2ccc(cc2Cl)[C@H]1O [VANCOMYCIN]	–	–	–	–	9.6	0.8 (≈ 0.552 µM)
CCC(=O)NC1=NC(=O)C(N(C)C(=O)C[C@@H](N)CCCNC(=N)N)CN1 (mixture of isomers)	< 5	–	< 5	16	–	–
CN(C(=O)C[C@@H](N)CCCNC(=N)N)C1CN=C(NC(N)=O)NC1 (mixture of isomers)	–	–	121	> 256	–	–
CC(=O)NC(=N)NCCC[C@H](N)CC(=O)N(C)C1CNC(NC(N)=O)=NC1=O (mixture of isomers)	–	–	106	> 256	–	–
CC(=O)NC1=NC(=O)C(N(C)C(=O)C[C@@H](N)CCCNC(=N)N)CN1 (mixture of isomers)	0.2	2	0.1	8	–	–
CN(C)C(=N)NCCC[C@H](N)CC(=O)N(C)C1CNC(NC(N)=O)=NC1=O (mixture of isomers)	20.6	4.9	4.2	64	–	–
C/N=C(/N)NCCC[C@H](N)CC(=O)N(C)C1CN=C(NC(N)=O)NC1=O (mixture of isomers)	1.3	6.5	0.2	8	3.3	32
CC/N=C(/N)NCCC[C@H](N)CC(=O)N(C)C1CN=C(NC(N)=O)NC1=O (mixture of isomers)	27.4	–	2.4	> 256	–	–
CN(CC1CNC(NC(N)=O)=NC1=O)C(=O)C[C@@H](N)CCCNC(=N)N (mixture of isomers)	56	1.1	51	> 500	–	–
C/N=C(/N)N1CCC(C[C@H](N)CC(=O)N(C)C2CNC(NC(N)=O)=NC2=O)CC1 (mixture of isomers)	53	14.7	3.6	64	–	–
CN(C(=O)C[C@@H](N)c1cccc(NC(=N)N)c1)C1CNC(NC(N)=O)=NC1=O (mixture of isomers)	1.9	10	0.15	256	–	–
CN(C(=O)C[C@@H](N)CCCNC(N)=O)C1CNC(NC(N)=O)=NC1=O (mixture of isomers)	> 500	–	> 500	> 500	–	–
CN(C(=O)C[C@@H](N)CC1CCN(C(=N)N)CC1)C1CNC(NC(N)=O)=NC1=O (mixture of isomers)	0.75	6.8	0.11	16	2.4	16
CC(=O)NC1=CC(=O)C(N(C)C(=O)C[C@@H](N)CCCNC(=N)N)CN1 (mixture of isomers)	> 500	–	> 500	> 500	–	–
CCN(C(=O)C[C@@H](N)CCCNC(=N)N)C1CNC(NC(N)=O)=NC1=O (mixture of isomers)	45	25	1.8	256	–	–

Structure (SMILES)	IC50 [1] [µM]	Selectivity ratio [2]	IC50 [3] [µM]	MIC [4] [µg/mL]	ED50 [5] [mg/kg]	MIC [6] [µg/mL]
CN(C(=O)C[C@@H](N)CCCNC(=N)N)C1CNC(N2CCNC2=O)=NC1=O (mixture of isomers)	> 500	–	> 500	> 500	–	–
CN(C(=O)C[C@@H](N)C[C@H]1CCNC1)C1CNC(NC(N)=O)=NC1=O (mixture of isomers)	0.6	0.3	2	64	–	–
CN(C(=O)C[C@@H](N)CCCN=C(N)N)C1CN=C(NC(N)=O)NC1=O (mixture of isomers)	0.2	0.67	–	8	0.7	12.8
CN(C(=O)C[C@@H](N)C[C@@H]1CCNC1)C1CNC(NC(N)=O)=NC1=O (mixture of isomers)	3.4	0.9	3.9	128	–	–
CC(=O)N(C)C1=NC(=O)C(N(C)C(=O)C[C@@H](N)CCCNC(=N)N)CN1 (mixture of isomers)	21	3.1	6.8	64	–	–
CN(C(=O)C[C@@H](N)C1CCN(C(=N)N)CC1)C1CNC(NC(N)=O)=NC1=O (mixture of isomers)	0.23	1.3	0.18	16	–	–
CN(C(=O)C[C@@H](N)Cc1ccc(C(=N)N)cc1)C1CNC(NC(N)=O)=NC1=O (mixture of isomers)	12.3	8.2	0.51	512	–	–
CN(C(=O)C[C@@H](N)CC1CCNCC1)C1CNC(NC(N)=O)=NC1=O (mixture of isomers)	6.6	1	6.6	64	–	–
CN(C(=O)C[C@H](CCCCN)NC=O)C1CNC(NC(N)=O)=NC1=O (mixture of isomers)	> 500	–	> 500	> 500	–	–
CN1C(=O)C(N(C)C(=O)C[C@@H](N)CCCNC(=N)N)CN=C1NC(N)=O (mixture of isomers)	> 500	–	> 500	> 500	–	–
CN(C)C(=O)NC1=NC(=O)C(N(C)C(=O)C[C@@H](N)CCCNC(=N)N)CN1 (mixture of isomers)	19.7	3.4	8.8	> 500	–	–
CN(C(=O)C[C@@H](N)CCCN)C1CN=C(NC(N)=O)NC1=O (mixture of isomers)	< 5	<0.6	9	64	–	–
CN(C(=O)C[C@@H](N)CCCN/C(N)=N\O)C1CNC(NC(N)=O)=NC1=O (mixture of isomers)	23.2	2.8	8.2	64	–	–
CN(C(=O)C[C@@H](N)CCC(=O)NC(=N)N)C1CNC(NC(N)=O)=NC1=O (mixture of isomers)	7	0.03	226	> 500	–	–
CN(C(=O)C[C@@H](N)C[C@H]1CCN(C(=N)N)C1)C1CNC(NC(N)=O)=NC1=O (mixture of isomers)	0.45	2.6	0.17	8	1.5	16
CN(C(=O)C[C@@H](N)CCCCN)C1CN=C(NC(N)=O)NC1=O (mixture of isomers)	39.8	6	6.5	64	–	–
CN[C@@H](CCCCN)CC(=O)N(C)C1CNC(NC(N)=O)=NC1=O (mixture of isomers)	5	0.2	25	128	–	–
CN1CC(N(C)C(=O)C[C@@H](N)CCCNC(=N)N)C(=O)N=C1NC(N)=O (mixture of isomers)	> 500	–	> 500	> 500	–	–
